Entries after “also recorded” stand apart in the source; their conditions may differ.
The compounds below were run on intracellular O2- in stationary phase budding yeast cells (assay: High throughput flow cytometry DHE screen for reduction of superoxide in stationary phase budding yeast). Details: not given.
Format: cell-based, S. cerevisiae

Row | SMILES | decrease in superoxide signals (control compound) | dose dependency in re-screening (reduction of superoxide, DHE)
1 | Nc1nc[nH]n1 [3-aminotriazol, reference compound] | more robust and reproducible decrease in superoxide signals | –
2 | CC(C)(C)n1nc(-c2ccc(Cl)cc2)c2c(N)ncnc21 [MLS000326622, 1-tert-butyl-3-(4-chlorophenyl)pyrazolo[3,4-d]pyrimidin-4-amine] | – | identified by dose dependency; also recorded: exhibited dose dependency
3 | O=c1cccc2[nH]c3ccccc3nc1-2 [MLS000737174, 5H-phenazin-1-one] | – | identified by dose dependency; also recorded: exhibited dose dependency
4 | Nc1cc2nc3ccccc3nc2cc1N [MLS001044416, phenazine-2,3-diamine] | – | identified by dose dependency; also recorded: exhibited dose dependency
5 | CNc1ccc2nc3ccccc3[n+](C)c2c1.[O-][Cl+3]([O-])([O-])[O-] [MLS001164912, N,10-dimethylphenazin-10-ium-2-amine perchlorate] | – | identified by dose dependency; also recorded: exhibited dose dependency
6 | C=C1[C@@H](O)[C@@H]2O[C@]3(CC[C@H](/C=C/[C@@H](C)[C@@H]4CC(C)=C[C@@]5(O[C@H](C[C@@](C)(O)C(=O)O)CC[C@H]5O)O4)O3)CC[C@H]2O[C@@H]1[C@@H](O)C[C@H](C)[C@H]1O[C@@]2(CCCCO2)CC[C@H]1C [MLS002320508, (2R)-3-[(4S,10S)-4-[(E)-4-[(2S,2′R,4aS,6R,8aR)-4-hydroxy-2-[1-hydroxy-3-[(10S)-9-methyl-5,11-dioxaspiro[5.5]undecan-10-yl]butyl]-3-methylidenespiro[4a,7,8,8a-tetrahydro-4H-pyran[3,2-b]pyran-6,5′-oxolane]-2′-yl]but-3-en-2-yl]-7-hydroxy-2-methyl-5,11-dioxaspiro[5.5]undec-1-en-10-yl]-2-hydroxy-2-methylpropanoic acid] | – | identified by dose dependency; also recorded: exhibited dose dependency
7 | C[C@]12CCC3C(CC[C@H]4C[C@@H](O)CC[C@]34C)[C@H]1CC[C@H]2O (stereo partly drawn) [MLS002554375, (3S,5S,10S,13S,14R,17R)-10,13-dimethyl-2,3,4,5,6,7,8,9,11,12,14,15,16,17-tetradecahydro-1H-cyclopenta[a]phenanthrene-3,17-diol] | – | identified by dose dependency; also recorded: exhibited dose dependency
8 | C[C@]12CCC3C(CC[C@H]4C[C@H](O)CC[C@]34C)C1CCC2=O (stereo partly drawn) [MLS002554454, (3R,5S,10S,13S)-3-hydroxy-10,13-dimethyl-1,2,3,4,5,6,7,8,9,11,12,14,15,16-tetradecahydrocyclopenta[a]phenanthren-17-one] | – | identified by dose dependency; also recorded: exhibited dose dependency

Same assay, conditions: dose response assays from 0.004 uM to 30 uM; 7 day incubation, 7% glucose

Row | SMILES | dose dependency in re-screening (reduction of superoxide, DHE)
9 | COc1ccc2c(c1)c1nnc(SC)nc1n2C [MLS000033501, 8-methoxy-5-methyl-3-methylsulfanyl-[1,2,4]triazino[5,6-b]indole] | identified by dose dependency; also recorded: exhibited dose dependency
10 | CC(C)(C)Nc1ncnc2c1cnn2-c1ccccc1 [MLS000100785, N-tert-butyl-1-phenylpyrazolo[3,4-d]pyrimidin-4-amine] | identified by dose dependency; also recorded: exhibited dose dependency
11 | O=C(/C=C/c1ccccc1)NC(=S)NNC(=O)Cc1cccs1 [MLS000121367, (E)-3-phenyl-N—[[(2-thiophen-2-ylacetyl)amino]carbamothioyl]prop-2-enamide] | identified by dose dependency; also recorded: exhibited dose dependency
12 | CC(C)(C)n1nc(-c2ccc(F)cc2)c2c(N)ncnc21 [MLS000326584, 1-tert-butyl-3-(4-fluorophenyl)pyrazolo[3,4-d]pyrimidin-4-amine] | identified by dose dependency; also recorded: exhibited dose dependency
13 | O=C(Nc1ccc2nc3ccccc3nc2c1)c1ccccc1 [MLS000418506, N-phenazin-2-ylbenzamide] | identified by dose dependency; also recorded: exhibited dose dependency
14 | COc1ccc2c3c(cccc13)N(C)N=C2C [MLS000554700, 6-Methoxy-1,3-dimethyl-1H-benzo[de]cinnoline] | identified by dose dependency; also recorded: exhibited dose dependency
15 | c1ccc2nc3ccccc3nc2c1 [MLS000584128, phenazine] | identified by dose dependency; also recorded: exhibited dose dependency
16 | CCN(CC)C(=O)c1ccc2nc3ccccc3nc2c1 [MLS000595212, N,N-diethylphenazine-2-carboxamide] | identified by dose dependency; also recorded: exhibited dose dependency
17 | C=CCSc1nnc(-c2ccc([N+](=O)[O-])cc2)o1 [MLS000662516, 2-(4-nitrophenyl)-5-prop-2-enylsulfanyl-1,3,4-oxadiazole] | identified by dose dependency; also recorded: exhibited dose dependency
18 | C#CCSc1nnc(-c2ccc([N+](=O)[O-])cc2)o1 [MLS000663774, 2-(4-nitrophenyl)-5-prop-2-ynylsulfanyl-1,3,4-oxadiazole] | identified by dose dependency; also recorded: exhibited dose dependency
19 | COc1cccc2nc3cc(C)c(C)cc3nc12 [MLS000756830, 1-methoxy-7,8-dimethylphenazine] | identified by dose dependency; also recorded: exhibited dose dependency
20 | COc1ccc2nc3ccccc3nc2c1 [MLS000768124, 2-methoxyphenazine] | identified by dose dependency; also recorded: exhibited dose dependency
21 | OCC[n+]1c2ccccc2nc2ccc(N3CCOCC3)cc21 [MLS000768911, 2-(3-morpholin-4-ylphenazin-5-ium-5-yl)ethanolperchlorate] | identified by dose dependency; also recorded: exhibited dose dependency
22 | CCC(Nc1ccccc1O)=C1C(=O)CC(c2ccccc2)CC1=O (centres unmarked) [MLS000779260, 2-[1-(2-hydroxyanilino)propylidene]-5-phenylcyclohexane-1,3-dione] | identified by dose dependency; also recorded: exhibited dose dependency
23 | CSc1nnc(-c2ccc([N+](=O)[O-])cc2)o1 [MLS000855890, 2-methylsulfanyl-5-(4-nitrophenyl)-1,3,4-oxadiazole] | identified by dose dependency; also recorded: exhibited dose dependency
24 | COC(=O)c1cccc2nc3c(C(C)O)cccc3nc12 (centres unmarked) [MLS000863638, methyl 6-(1-hydroxyethyl)phenazine-1-carboxylate] | identified by dose dependency; also recorded: exhibited dose dependency
25 | O=C(c1cccc2nc3ccccc3nc12)N1CCOCC1 [MLS001044337, morpholin-4-yl(phenazin-1-yl)methanone] | identified by dose dependency; also recorded: exhibited dose dependency
26 | COc1ccc2nc3ccccc3nc2c1N [MLS001044341, 2-methoxyphenazin-1-amine] | identified by dose dependency; also recorded: exhibited dose dependency
27 | CNC(=O)c1cccc2nc3ccccc3nc12 [MLS001044346, N-methylphenazine-1-carboxamide] | identified by dose dependency; also recorded: exhibited dose dependency
28 | CC(=O)Nc1ccc2nc3ccccc3nc2c1 [MLS001044354, N-phenazin-2-ylacetamide] | identified by dose dependency; also recorded: exhibited dose dependency
29 | COc1ccc2nc3ccccc3nc2c1 [MLS001048992, 2-methoxyphenazine] | identified by dose dependency; also recorded: exhibited dose dependency
30 | FC(F)(F)c1nc2cc3nc4ccccc4nc3cc2[nH]1 [MLS001049309, 2-(trifluoromethyl)-1H-imidazo[4,5-b]phenazine] | identified by dose dependency; also recorded: exhibited dose dependency
31 | CC(C)OC(=O)c1ccc2nc3ccccc3nc2c1 [MLS001173415, propan-2-yl phenazine-2-carboxylate] | identified by dose dependency; also recorded: exhibited dose dependency
32 | CC(=NNc1ncnc2sc(C)c(C)c12)c1ccccn1 [MLS001176565, 5,6-dimethyl-N-(1-pyridin-2-ylethylideneamino)thieno[2,3-d]pyrimidin-4-amine] | identified by dose dependency; also recorded: exhibited dose dependency
33 | O=c1ccc2[n+]([O-])c3ccccc3n(O)c-2c1 [MLS001208198, 10-hydroxy-5-oxidophenazin-5-ium-2-one] | identified by dose dependency; also recorded: exhibited dose dependency
34 | C[C@]12CCC3C(CC[C@H]4C[C@H](O)CC[C@]34C)C1C[C@@H](CCCCl)[C@@H]2O (stereo partly drawn) [MLS002554453, (3R,5S,10S,13S,16R,17S)-16-(3-chloropropyl)-10,13-dimethyl-2,3,4,5,6,7,8,9,11,12,14,15,16,17-tetradecahydro-1H-cyclopenta[a]phenanthrene-3,17-diol] | identified by dose dependency; also recorded: exhibited dose dependency
35 | COc1ccc2nc3ccccc3[n+]([O-])c2c1 [MLS002638803, 2-methoxy-10-oxidophenazin-10-ium] | identified by dose dependency; also recorded: exhibited dose dependency
